In assay [1] the test system is wild-type (WT) HEK293 cells. Description: Pink Flamindo cAMP assay control in wild-type HEK293 cells lacking μORs. In kind it is cell-based. As to conditions: compound 1 μM, AUC analysis, n = 3. A general note: Cyclic AMP is a second messenger, typically raised through Gs and lowered through Gi signalling.
Another assay has as its system μOR. As to conditions: cited from earlier work.

The values that follow come from article PMC11299522 (Journal of medicinal chemistry, 2023).

With `C=C(C)[C@@H]1CCC(C)=C[C@H]1c1c(O)cc(CCCCC)cc1O` [JGC1, (1′R,2′R)-5′-Methyl-4-pentyl-2′-(prop-1-en-2-yl)-1′,2′,3′,4′-tetrahydro-[1,1′-biphenyl]-2,6-diol], the “effect on cAMP accumulation in the absence of the hμOR” value in assay [1] is “do not impact cAMP accumulation”.
As to “[D-Ala,[2] N-MePhe,[4] Gly-ol]-enkephalin [DAMGO]”, the EC100 with μOR is 250 nM.
